Assay results: US20190119284A1, “ErbB Inhibitors and Uses Thereof” (The Regents of the University of California, priority 2016, published 2019)
Where “and” joins values, the source holds several entries; their conditions need not be identical. Equal values may be shown once. Read-outs that look alike come from different tables or passages of the source. Blank lines part the entries; values can stand above or below the compound they belong to.

Assays:
[1] = Mouse Liver Microsome stability assay; assay type: in vitro ADME; details: mouse liver microsomes
[2] = Pharmacokinetic study, IP administration in male CD-1 mice; assay type: in vivo
[3] = Pharmacokinetic study, IV administration in male CD-1 mice; assay type: in vivo; details: for AUCExtra / AUC0-inf / AUC0-last / AUCall / C0 / Cl / MRT0-last / T½ / Vd / AUC / AUC(0-t) / clearance / concentration at 0.08 h / concentration at 0.25 h / concentration at 1 h / concentration at 3 h / concentration at 5 h / concentration at 8 h / MRT last / half-life / concentration at 24 h: plasma; for half-life: read-out: T½ (converted)
[4] = IP 2.0 mg/kg, individual mice M1-M3
[5] = IP 2.0 mg/kg, individual mice M1-M3, 2 mg/kg
[6] = IP 2.0 mg/kg, plasma, individual mice M1-M3, 2 mg/kg
[7] = male, CD-1, mouse, plasma, ip, 2 mg/kg, Mean
[8] = male, CD-1, mouse, plasma, ip, 2 mg/kg, Mean, read-out: AUC0-inf
[9] = male, CD-1, mouse, plasma, ip, 2 mg/kg, Mean, read-out: Cmax
[10] = male, CD-1, mouse, plasma, ip, 2 mg/kg, Mean, read-out: MRT0-last
[11] = male, CD-1, mouse, plasma, ip, 2 mg/kg, individual mice M1-M3
[12] = male, CD-1, mouse, plasma, ip, 2 mg/kg, individual mice M1-M3, read-out: AUC0-inf
[13] = male, CD-1, mouse, plasma, ip, 2 mg/kg, individual mice M1-M3, read-out: Cmax
[14] = male, CD-1, mouse, IP 2.0 mg/kg, plasma, individual mice M1-M3
[15] = IV 2.0 mg/kg, individual mice M1-M3, 2 mg/kg
[16] = male, CD-1, mouse, iv, 2 mg/kg, Mean
[17] = male, CD-1, mouse, iv, 2 mg/kg, Mean, read-out: AUC0-inf
[18] = male, CD-1, mouse, iv, 2 mg/kg, Mean, read-out: C0
[19] = male, CD-1, mouse, iv, 2 mg/kg, Mean, read-out: MRT0-last
[20] = male, CD-1, mouse, iv, 2 mg/kg, Mean, read-out: Vd
[21] = male, CD-1, mouse, iv, 2 mg/kg, individual mice M1-M3
[22] = male, CD-1, mouse, iv, 2 mg/kg, individual mice M1-M3, read-out: C0
[23] = male, CD-1, mouse, iv, 2 mg/kg, individual mice M1-M3, read-out: MRT0-last
[24] = male, CD-1, mouse, iv, 2 mg/kg, individual mice M1-M3, read-out: Vd

WuXi Microsomal stability (Mouse Extraction Ratio) [1]: 0.4
Plasma Concentration at 5.00 h ([2]; IP 2.0 mg/kg, Mean): BLQ
Plasma Concentration at 8.00 h ([2]; IP 2.0 mg/kg, Mean): BLQ
Plasma Concentration at 24.00 h ([2]; IP 2.0 mg/kg, Mean): BLQ
Plasma Concentration at 8.00 h [2, 4]: BLQ
Plasma Concentration at 24.00 h [2, 4]: BLQ
Plasma Concentration at 0.25 h [2, 5]: 306.24 ng/mL and 169.92 ng/mL
Plasma Concentration at 1.00 h [2, 5]: 69.88 ng/mL and 66.74 ng/mL
Plasma Concentration at 3.00 h [2, 5]: 9.75 ng/mL and 2.05 ng/mL and BLQ
Plasma Concentration at 5.00 h [2, 5]: BLQ
AUCExtra ([2]; IP 2.0 mg/kg, plasma, Mean): 0.96%
AUC0-inf [2, 6]: 197.83 ng·h/mL
AUCExtra [2, 6]: 1.35% and 0.57%
Cmax [2, 6]: 306.24 ng/mL and 169.92 ng/mL
Half-life (T½) [2, 6]: 47.4 min and 22.8 min
MRT0-last [2, 6]: 63.6 min and 40.2 min and 30 min
Half-life (T½) ([2]; male, CD-1, mouse, plasma, intraperitoneal, 2 mg/kg, IP 2.0 mg/kg, Mean, read-out: Oral T½ (converted)): 35.4 min
AUC [2, 7]: 170 ng·h/mL
AUC(0-t) [2, 7]: 170 ng·h/mL
concentration at 0.25 h [2, 7]: 228 ng/mL
concentration at 1 h [2, 7]: 73.9 ng/mL
concentration at 3 h [2, 7]: 5.9 ng/mL
AUC0-inf [2, 8]: 205 ng·h/mL
Cmax [2, 9]: 228 ng/mL
MRT last [2, 10]: 44.4 min
concentration at 0.25 h [2, 11]: 207 ng/mL
concentration at 1 h [2, 11]: 85.2 ng/mL
concentration at 5 h [2, 11]: 2.52 ng/mL
AUC0-inf [2, 12]: 212 ng·h/mL
Cmax [2, 13]: 207 ng/mL
Tmax [2, 14]: 15 min
Plasma Concentration at 24.00 h ([3]; IV 2.0 mg/kg, Mean): BLQ
Plasma Concentration at 24.00 h ([3]; IV 2.0 mg/kg, individual mice M1-M3): BLQ
Plasma Concentration at 0.08 h [3, 15]: 643.79 ng/mL and 668.53 ng/mL
Plasma Concentration at 0.25 h [3, 15]: 361.85 ng/mL and 533.91 ng/mL
Plasma Concentration at 1.00 h [3, 15]: 124.19 ng/mL and 132.77 ng/mL
Plasma Concentration at 3.00 h [3, 15]: 16.88 ng/mL and 24.59 ng/mL
Plasma Concentration at 5.00 h [3, 15]: 4.53 ng/mL and 8.17 ng/mL and 9.69 ng/mL
Plasma Concentration at 8.00 h [3, 15]: 1.79 ng/mL and BLQ and 4.14 ng/mL
AUCExtra ([3]; IV 2.0 mg/kg, Mean): 1.68%
AUC0-inf [3, 15]: 451.15 ng·h/mL and 566.58 ng·h/mL
AUC0-last [3, 15]: 441.82 ng·h/mL and 554.77 ng·h/mL
AUCExtra [3, 15]: 0.88% and 2.07% and 2.08%
AUCall [3, 15]: 441.82 ng·h/mL and 554.77 ng·h/mL
C0 [3, 15]: 857.24 ng/mL and 747.58 ng/mL
Cl [3, 15]: 73.89 mL/min/kg and 58.83 mL/min/kg
MRT0-last [3, 15]: 52.2 min and 65.4 min
T½ [3, 15]: 1.70 h and 0.79 h and 1.98 h
Vd [3, 15]: 5.06 L/kg and 10.07 L/kg
AUC [3, 16]: 497 ng·h/mL
AUC(0-t) [3, 16]: 497 ng·h/mL
clearance [3, 16]: 66.5 mL/min/kg
concentration at 0.08 h [3, 16]: 638 ng/mL
concentration at 0.25 h [3, 16]: 426 ng/mL
concentration at 1 h [3, 16]: 146 ng/mL
concentration at 3 h [3, 16]: 18.6 ng/mL
concentration at 5 h [3, 16]: 7.46 ng/mL
concentration at 8 h [3, 16]: 2.97 ng/mL
AUC0-inf [3, 17]: 506 ng·h/mL
C0 [3, 18]: 786 ng/mL
MRT last [3, 19]: 57.6 min
half-life [3, 16]: 89.4 min
Vd [3, 20]: 8.32 L/kg
AUC [3, 21]: 496 ng·h/mL
AUC(0-t) [3, 21]: 496 ng·h/mL
clearance [3, 21]: 66.7 mL/min/kg
concentration at 0.08 h [3, 21]: 601 ng/mL
concentration at 0.25 h [3, 21]: 382 ng/mL
concentration at 1 h [3, 21]: 181 ng/mL
concentration at 3 h [3, 21]: 14.3 ng/mL
AUC0-inf ([3]; male, CD-1, mouse, iv, 2 mg/kg, individual mice M1-M3, read-out: AUC0-inf): 500 ng·h/mL
C0 [3, 22]: 754 ng/mL
MRT last [3, 23]: 56.4 min
Vd [3, 24]: 9.82 L/kg
SMILES: COc1ccc(-c2ccc(F)cc2)cc1Nc1ncnc2[nH]nc(-c3cc[nH]n3)c12 [8168C]
AUC0-last [2, 6]: 208.92 ng·h/mL and 196.69 ng·h/mL and 104.05 ng·h/mL
AUCall [2, 6]: 208.92 ng·h/mL and 196.69 ng·h/mL and 104.05 ng·h/mL

WuXi Microsomal stability (Mouse Extraction Ratio) [1]: <0.3
Plasma Concentration at 5.00 h ([2]; IP 2.0 mg/kg, Mean): BLQ
Plasma Concentration at 8.00 h ([2]; IP 2.0 mg/kg, Mean): BLQ
Plasma Concentration at 24.00 h ([2]; IP 2.0 mg/kg, Mean): BLQ
Plasma Concentration at 5.00 h [2, 4]: BLQ
Plasma Concentration at 8.00 h [2, 4]: BLQ
Plasma Concentration at 24.00 h [2, 4]: BLQ
Plasma Concentration at 0.25 h [2, 5]: 189.54 ng/mL and 198.56 ng/mL
Plasma Concentration at 1.00 h [2, 5]: 69.73 ng/mL and 76.68 ng/mL
Plasma Concentration at 3.00 h [2, 5]: 4.17 ng/mL and 2.33 ng/mL
AUCExtra ([2]; IP 2.0 mg/kg, plasma, Mean): 1.11%
AUC0-inf [2, 6]: 163.10 ng·h/mL and 164.87 ng·h/mL
AUC0-last [2, 6]: 160.10 ng·h/mL and 163.46 ng·h/mL
AUCExtra [2, 6]: 0.63% and 1.84% and 0.86%
AUCall [2, 6]: 160.10 ng·h/mL and 163.46 ng·h/mL
Cmax [2, 6]: 189.54 ng/mL and 198.56 ng/mL
Half-life (T½) [2, 6]: 30 min and 25.2 min
MRT0-last [2, 6]: 48.6 min
AUC [2, 7]: 175 ng·h/mL
AUC(0-t) [2, 7]: 175 ng·h/mL
concentration at 0.25 h [2, 7]: 210 ng/mL
concentration at 1 h [2, 7]: 82.3 ng/mL
concentration at 3 h [2, 7]: 2.92 ng/mL
AUC0-inf [2, 8]: 177 ng·h/mL
Cmax [2, 9]: 210 ng/mL
MRT last [2, 10]: 46.8 min
Half-life (T½) ([2]; male, CD-1, mouse, plasma, ip, 2 mg/kg, Mean, read-out: Oral T½ (converted)): 26.4 min
AUC [2, 11]: 203 ng·h/mL
AUC(0-t) [2, 11]: 203 ng·h/mL
concentration at 0.25 h [2, 11]: 242 ng/mL
concentration at 1 h [2, 11]: 101 ng/mL
concentration at 3 h [2, 11]: 2.25 ng/mL
AUC0-inf [2, 12]: 204 ng·h/mL
Cmax [2, 13]: 242 ng/mL
MRT last ([2]; male, CD-1, mouse, plasma, ip, 2 mg/kg, individual mice M1-M3, read-out: MRT0-last): 45.6 min
Half-life (T½) ([2]; male, CD-1, mouse, plasma, ip, 2 mg/kg, individual mice M1-M3, read-out: Oral T½ (converted)): 24 min
Tmax [2, 14]: 15 min
Plasma Concentration at 0.08 h [3, 15]: 53.28 ng/mL and 64.54 ng/mL
Plasma Concentration at 0.25 h [3, 15]: 29.14 ng/mL and 34.06 ng/mL
Plasma Concentration at 1.00 h [3, 15]: 22.71 ng/mL and 12.93 ng/mL
Plasma Concentration at 3.00 h [3, 15]: 11.36 ng/mL and 8.08 ng/mL
Plasma Concentration at 5.00 h [3, 15]: 7.57 ng/mL and 6.55 ng/mL
Plasma Concentration at 8.00 h [3, 15]: 7.32 ng/mL and 9.38 ng/mL
Plasma Concentration at 24.00 h [3, 15]: 5.33 ng/mL and 3.54 ng/mL
AUCExtra ([3]; IV 2.0 mg/kg, Mean): 46.09%
AUC0-last [3, 15]: 205.32 ng·h/mL and 185.37 ng·h/mL
AUCExtra [3, 15]: 94.18% and 57.85% and 34.33%
AUCall [3, 15]: 205.32 ng·h/mL and 185.37 ng·h/mL
C0 [3, 15]: 71.91 ng/mL and 88.67 ng/mL
MRT0-last [3, 15]: 542 min
T½ [3, 15]: 302.57 h and 36.64 h and 18.98 h
Vd [3, 15]: 217.05 L/kg and 193.96 L/kg
AUC [3, 16]: 191 ng·h/mL
AUC(0-t) [3, 16]: 191 ng·h/mL
clearance [3, 16]: 93.3 mL/min/kg
concentration at 0.08 h [3, 16]: 58.9 ng/mL
concentration at 0.25 h [3, 16]: 31.6 ng/mL
concentration at 1 h [3, 16]: 17.8 ng/mL
concentration at 3 h [3, 16]: 9.72 ng/mL
concentration at 5 h [3, 16]: 7.06 ng/mL
concentration at 8 h [3, 16]: 8.35 ng/mL
concentration at 24 h [3, 16]: 4.44 ng/mL
AUC0-inf [3, 17]: 385 ng·h/mL
C0 [3, 18]: 77.7 ng/mL
MRT last [3, 19]: 568 min
half-life [3, 16]: 1670 min
Vd [3, 20]: 206 L/kg
AUC [3, 21]: 183 ng·h/mL
AUC(0-t) [3, 21]: 183 ng·h/mL
concentration at 0.08 h [3, 21]: 55.1 ng/mL
concentration at 0.25 h [3, 21]: 31.9 ng/mL
concentration at 1 h [3, 21]: 12.3 ng/mL
concentration at 3 h [3, 21]: 6.96 ng/mL
concentration at 5 h [3, 21]: 7.32 ng/mL
concentration at 8 h [3, 21]: 6.02 ng/mL
concentration at 24 h [3, 21]: 6.79 ng/mL
C0 [3, 22]: 72.4 ng/mL
MRT last [3, 23]: 618 min
Vd [3, 24]: 277 L/kg
SMILES: COc1ccc(-c2cccc(F)c2)cc1Nc1ncnc2[nH]nc(-c3cc[nH]n3)c12 [8168B]
AUC0-inf [3, 15]: 3147.06 ng·h/mL and 487.06 ng·h/mL and 282.28 ng·h/mL
Cl [3, 15]: 10.59 mL/min/kg and 68.44 mL/min/kg and 118.09 mL/min/kg
